In patent publication US5955616A, “Pyrrolidine derivatives having phospholipase A2 inhibitory activity” (Shionogi & Co., Ltd., priority 1995, dated 1999):

What was measured:
cPLA2 = target: T1, cPLA2 (Homo sapiens, UniProt P47712); assay: cPLA2 Inhibitory activity (release of radiolabelled fatty acid from liposomes); assay type: biochemical; conditions: 50 mM HEPES pH 7.4, 1 mM CaCl2, 2.5 μM radio-labeled phosphatidylcholine, 15 min at 37° C; read-out: cPLA2 Inhibition Activity IC50
T1 sequence (P47712 1-749): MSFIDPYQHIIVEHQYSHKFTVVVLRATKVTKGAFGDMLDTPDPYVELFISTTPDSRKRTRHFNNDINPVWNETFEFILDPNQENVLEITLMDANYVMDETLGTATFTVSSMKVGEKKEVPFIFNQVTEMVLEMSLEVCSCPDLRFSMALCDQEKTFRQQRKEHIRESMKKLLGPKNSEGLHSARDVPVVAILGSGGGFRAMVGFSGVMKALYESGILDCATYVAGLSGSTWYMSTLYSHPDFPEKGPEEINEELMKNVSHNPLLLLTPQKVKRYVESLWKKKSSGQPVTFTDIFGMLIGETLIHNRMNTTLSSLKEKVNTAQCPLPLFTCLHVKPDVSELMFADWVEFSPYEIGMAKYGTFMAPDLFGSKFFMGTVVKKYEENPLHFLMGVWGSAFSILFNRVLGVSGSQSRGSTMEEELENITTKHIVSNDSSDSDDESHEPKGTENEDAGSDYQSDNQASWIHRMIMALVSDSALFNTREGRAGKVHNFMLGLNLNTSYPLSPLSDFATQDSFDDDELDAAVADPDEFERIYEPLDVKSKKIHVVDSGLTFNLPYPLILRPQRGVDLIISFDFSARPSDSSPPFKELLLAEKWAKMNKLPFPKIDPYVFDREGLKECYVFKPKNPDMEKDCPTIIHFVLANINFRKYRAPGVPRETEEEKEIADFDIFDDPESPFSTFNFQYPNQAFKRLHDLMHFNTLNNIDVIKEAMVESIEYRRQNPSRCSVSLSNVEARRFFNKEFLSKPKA
Method in brief: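 Liposomes of [14C]-arachidonoyl phosphatidylcholine/dioleoylglycerol (2:1) at 2.5 μM labelled PC in 50 mM HEPES pH 7.4 with 1 mM CaCl2, 2 mM DTT, 150 mM NaCl, 0.1 mg/ml BSA. Compound (0.4–250 μM), 4 ng enzyme, 15 min at 37 °C. Released fatty acid counted by scintillation; IC50 from % of control.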

[1] = system: Prostaglandin E2 production in human fibroblasts; assay: Inhibition of Production of Prostaglandin E2 in Human Fibroblasts (IL-1 stimulated); assay type: cell-based; conditions: Fibroblast, stimulation with IL-1, read-out: Inhibitory activity Against the Production of Prostaglandin E2 in Human Fibroblasts IC50
Method: Experiment 2 Inhibition of Production of Prostaglandin E2 in Human Fibroblasts
From this viewpoint, the compounds of the present invention were tested for the effect on the production of prostaglandin E2 by human fibroblasts under the stimulation with IL-1 according to the method of J. M. Dayer et al (CACHECTIN/TUMOR NECROSIS FACTOR STIMULATES COLLAGENASE AND PROSTAGLANDIN E2 PRODUCTION BY HUMAN SYNOVIAL CELLS AND DERMAL FIBROBLASTS; J. M. Dayer, B. Beutlerm and A. Cerami, J. Exp. Med., 162,2163-2168, 1985).

O=C1NC(=S)S/C1=C\c1ccc(NC(=O)[C@@H]2C[C@H](SCc3ccccc3)CN2S(=O)(=O)c2ccc(Cc3ccccc3)cc2)cc1 [Compound A-48]
IC50 (cPLA2): 4.9 µM | IC50 [1]: 8.7 µM

CC(C)(C)c1ccc(S(=O)(=O)N2C[C@@H](SCc3ccccc3)C[C@H]2C(=O)Nc2ccc(/C=C3\SC(=S)NC3=O)cc2)cc1 [Compound A-39]
IC50 (cPLA2): 6.2 µM | IC50 [1]: 6 µM

O=C1NC(=S)SC1=Cc1ccc(NC(=O)[C@@H]2C[C@H](SCc3ccccc3)CN2C(=O)Nc2ccccc2)cc1 [Compound A-28]
IC50 (cPLA2): 8.3 µM | IC50 [1]: 0.73 µM

CS[C@H]1C[C@@H](C(=O)Nc2ccc(/C=C3\SC(=O)NC3=O)cc2)N(S(=O)(=O)c2c(Cl)cccc2Cl)C1 [Compound A-40]
IC50 (cPLA2): 15 µM | IC50 [1]: 7.7 µM

O=C1NC(=O)/C(=C/c2ccc(CCC[C@@H]3C[C@H](SC(c4ccccc4)c4ccccc4)CN3C(=O)CCc3ccccc3)cc2)S1 [Compound E-4]
IC50 (cPLA2): 3.7 µM | IC50 [1]: 1.9 µM

CCCCNC(=O)N1C[C@@H](SCc2ccccc2)C[C@H]1C(=O)Nc1ccc(C=C2SC(=S)NC2=O)cc1 [Compound A-30]
IC50 (cPLA2): 16 µM | IC50 [1]: 0.51 µM

O=C1NC(=O)C(=Cc2cc(CCCO)cc(NC(=O)C3CC(OC(c4ccccc4)c4ccccc4)CN3C(=O)c3ccccc3)c2)S1 (centres unmarked) [Compound C-6]
IC50 (cPLA2): 13 µM | IC50 [1]: 2.3 µM

CC(=O)Oc1ccc(O)cc1CCCCCCC(=O)N1C[C@@H](OC(c2ccccc2)c2ccccc2)C[C@H]1CNC(=O)c1ccc(/C=C2\SC(=O)NC2=O)cc1 [Compound H-16]
IC50 (cPLA2): 4.3 µM | IC50 [1]: 1.9 µM

O=C1NC(=O)/C(=C/c2ccc(C(=O)NC[C@@H]3C[C@H](OCc4ccc(-c5ccccc5)cc4)CN3C(=O)c3ccc(Cn4sccc4=O)cc3)cc2)S1 [Compound H-9]
IC50 (cPLA2): 2 µM | IC50 [1]: 9.6 µM

O=C1NC(=S)SC1=Cc1ccc(NC(=O)[C@@H]2C[C@H](SCc3ccccc3)CN2C(=O)c2ccncc2)cc1 [Compound A-24]
IC50 (cPLA2): 9.2 µM | IC50 [1]: 4.9 µM

O=C1NC(=S)O/C1=C\c1cn(NC(=O)[C@@H]2C[C@H](SCc3ccccc3)CN2C(=O)c2ccccc2)c2ccccc12 [Compound A-61]
IC50 (cPLA2): 1.6 µM | IC50 [1]: 10 µM

O=C1NC(=O)C(=Cc2ccc(C(=O)NC[C@@H]3C[C@H](NC(=O)c4ccc(Cn5sccc5=O)cc4)CN3S(=O)(=O)c3ccc(-c4ccccc4)cc3)cc2)S1 [Compound J-2]
IC50 (cPLA2): 2.9 µM | IC50 [1]: 9.7 µM

CN(C)c1cccc2c(S(=O)(=O)N3C[C@@H](SCc4ccccc4)C[C@H]3C(=O)Nc3ccc(/C=C4\SC(=S)NC4=O)cc3)cccc12 [Compound A-52]
IC50 (cPLA2): 5.6 µM | IC50 [1]: 2.9 µM

CS[C@H]1C[C@@H](C(=O)Nc2ccc(/C=C3\SC(=O)NC3=O)cc2)N(S(=O)(=O)c2ccc(-c3ccccc3)cc2)C1 [Compound A-44]
IC50 (cPLA2): 7.4 µM | IC50 [1]: 1.5 µM

O=C1NC(=S)SC1=Cc1ccc(NC(=O)[C@@H]2C[C@H](SCc3ccccc3)CN2C(=O)c2cccnc2)cc1 [Compound A-23]
IC50 (cPLA2): 10 µM | IC50 [1]: 8.6 µM

O=C1NC(=O)C(=Cc2ccc(S(=O)(=O)NC[C@@H]3C[C@H](SCc4ccccc4)CN3C(=O)c3ccccc3)cc2)S1 [Compound B-7]
IC50 (cPLA2): 9.7 µM | IC50 [1]: 3.6 µM
